Measurements reported in patent US20060166867A1, “Novel conjugates of polysaccharides and uses thereof” (priority 2003, published 2006).
“And” between values parts separate entries of the source, which are not always exact repeats. Identical values can stand only once. Like-named read-outs stand apart in the source and are kept apart here.

Legend:
HIV-1 IIIB = assay: microbe, parasite or virus in culture; type: cell-based; conditions: Table 3; against HIV-1 IIIB virus; read-out: EC50
Procedure: Inhibition of HIV-1 cell replication was tested using the cMAGI assay, which is based on the ability of HIV-1 TAT to transactivate the expression of an integrated β-galactosidase reporter gene driven by the HIV-LTR (B. Chackeria et al., J. Virol., (1997) 71, 3932; Collins et al., Nat. Med. (2000) 6, 475). The β-galactosidase reporter is modified to remain localized in the nucleus where it can be detected with the X-gal (5-bromo-4-chloro-3indoyl-β-D-galactopyranoside) substrate as an intense nuclear stain within a few days of infection.
(§1) HIV-1 isolates were propagated by subculture in MT2 cells (Litovchick et al. (2001) supra). Aliquots of cell-free culture supernatants were used as viral inoculum. PAACs were dissolved in the RPMI 1640 medium. Cytotoxicity determinations were carried out in MT2 cells by trypan blue exclusion assay. Viral inhibition was determined by incubating MT2 or cMAGI HIV-1 reporter cells with 0.2-0.5 multiplicity of infection of HIV-1 wild type or resistant virus for 4 days at 37° C. in the presence or absence of various concentrations of pAACs. HIV-1 infection of cMAGI cells was determined by counting the number of HIV-1-infected cells (stained blue). The cytopathic effects of the viral infection of MT2 cells were also analyzed by microscopic assessment of syncytium formation.

in vitro = type: cell-based; conditions: human, MT2 cells; Table 3; trypan blue exclusion; read-out: Cytotoxicity
Procedure: Cytotoxicity of the various pAACs was determined using the trypan blue exclusion assay. In brief, a sample of the cell suspension was diluted 1:1 (v/v) with 0.4% trypan blue and the cells were counted using a hemocytometer. Results are expressed as the percentage of dead cells.
as §1

CXCR4 = biological target: T1, CXCR4 (Homo sapiens, UniProt P61073); assay: Competition with 12G5 mAb binding to CXCR4 on MT2 cells (flow cytometry); conditions: 80 μM; read-out: % Inhibition of 12G5 mAb binding to CXCR4
T1 construct: incubated at 4° C. with anti-CXCR4 mAb, 12G5, conjugated to phycoerithrine (PE); endogenous in cells; host or cells: MT2 cells
T1 sequence (P61073 whole entry): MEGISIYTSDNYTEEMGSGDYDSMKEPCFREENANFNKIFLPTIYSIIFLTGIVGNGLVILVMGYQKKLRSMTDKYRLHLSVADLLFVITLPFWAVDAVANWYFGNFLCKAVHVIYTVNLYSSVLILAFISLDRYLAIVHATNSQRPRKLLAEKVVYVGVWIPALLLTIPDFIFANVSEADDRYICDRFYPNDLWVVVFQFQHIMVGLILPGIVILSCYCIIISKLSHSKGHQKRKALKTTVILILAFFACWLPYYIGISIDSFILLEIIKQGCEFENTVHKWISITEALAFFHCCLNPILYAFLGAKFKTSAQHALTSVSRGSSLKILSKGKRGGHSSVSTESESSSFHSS
Procedure: Interaction of pAACs and arginine peptides with CXCR4 coreceptor: Interactions of pAACs and arginine-peptides with CXCR4 were determined by flow cytometry (FACS-Scan, Becton Dickinson) as previously described (Litovich (2001) supra). In brief, 0.5×10^6 MT2 cells were washed with ice-cold PBS containing 0.1% sodium azide (wash buffer) and were incubated at 4° C. with anti-CXCR4 mAb, 12G5, conjugated to phycoerithrine (PE), in the absence or presence of different concentrations of pAACs and arginine peptides. After 30 minutes of incubation, the cells were washed with ice-cold wash buffer and fixed in PBS containing 1% paraformaldehyde. Non-specific fluorescence was assessed using an isotype control. For each sample 10,000 events were acquired. Data were analyzed and processed using CellQuest™ software (Becton Dickinson).

[1] = test system: Streptococcus bovis ATCC 9809; assay: MIC, broth microdilution; type: cell-based; conditions: Gram positive reference strain
Procedure: (§2) Minimal Inhibition Concentration (MIC) measurements: The Minimal Inhibitory Concentration (MIC) was generally determined by the Broth Microdilution method (based on the protocol described in Clinical and Laboratory Standard Institute (CLSI) NCCLS (2003) M7-A6), as follows:
(§3) A stock solution of each of the tested compounds was prepared by diluting the compound to a 2,560 μg/ml concentration with an appropriate solvent. The stock solution was then serially 2-fold diluted in 96-well microdilution trays using Cation-Adjusted Mueller-Hinton Broth (CAMHB) until reaching the desired range of concentrations, whereas each well contained double the final working concentration. Each row further had one growth control well (medium+inoculum only), and one sterility control well (medium+tested compound). Plates were stored at −70° C. until used.
(§4) The tested microorganisms were used as fresh overnight cultures on blood agar (for gram-positive organisms) or MacConkey agar (for gram-negatives). A standardized inoculum suspension was prepared by the direct colony suspension method, using sterile saline (equivalent to a 0.5 McFarland standard).
(§5) Thus, 50 μl of the inoculum suspension were added to each tested well (except for the sterility control well), and […] was performed during 18-24 hours (depending on the tested microorganism or compound) at 35° C.

E. coli U3075921 = assay: MIC, broth microdilution; type: cell-based, Escherichia coli; conditions: clinical isolate, Table 7
Procedure: as §2, §3, §4, §5

cMAGI cells = conditions: FITC derivatives, 5 and 15 μM, 30 minutes at 37° C.
Procedure: Cellular uptake using pAACs and polyarginine peptide-fluorescent derivatives: cMAGI cells were incubated in a 8-well plate (2000 cells/well) with a pAACs-FITC or a peptide-FITC derivative at a final concentration of 5 and 15 μM, for 30 minutes at 37° C. After incubation, cells were washed 3 times with phosphate buffered saline 3 times and were subjected to confocal microscopy measurements (Olympus IX70 FV500 confocal laser scanning microscope).

[2] = test system: Staphylococcus aureus ATCC 24213; conditions: Gram positive reference strain
S. aureus MSSA = conditions: Gram positive clinical isolate
S. aureus MRSA = conditions: Gram positive clinical isolate
S. epidermidis MSSE = conditions: Gram positive clinical isolate
S. epidermidis MRSE = conditions: Gram positive clinical isolate
[3] = test system: Enterococcus faecalis (clinical isolate); conditions: Gram positive clinical isolate
[4] = test system: Escherichia coli ATCC 25922; conditions: Gram negative reference strain
[5] = test system: Pseudomonas aeruginosa ATCC 27853; conditions: Gram negative reference strain
[6] = test system: Klebsiella pneumoniae ATCC 13883; conditions: Gram negative reference strain
[7] = test system: Proteus mirabilis ATCC 7002; conditions: Gram negative reference strain
[8] = test system: Acinetobacter baumannii ATCC 19606; conditions: Gram negative reference strain
[9] = test system: Moraxella catarrhalis ATCC 25238 (Branhamella); conditions: Gram negative reference strain
E. Coli-ESBL negative = conditions: Gram negative clinical isolate
E. Coli-ESBL positive = conditions: Gram negative clinical isolate
[10] = test system: K. pneumoniae-ESBL negative; conditions: Gram negative clinical isolate
[11] = test system: K. pneumoniae-ESBL positive; conditions: Gram negative clinical isolate
Serratia marcescens = conditions: Gram negative clinical isolate
Enterobacter cloacae = conditions: Gram negative clinical isolate
Enterobacter aerogenes = conditions: Gram negative clinical isolate
[12] = test system: P. aeruginosa-gentamicin^s, meropenem^s; conditions: Gram negative clinical isolate
[13] = test system: P. aeruginosa-gentamicin^r, meropenem^r; conditions: Gram negative clinical isolate
[14] = test system: A. baumannii-amikacin^s, meropenem^s; conditions: Gram negative clinical isolate
[15] = test system: A. baumannii-amikacin^r, meropenem^r; conditions: Gram negative clinical isolate
VRE faecium = conditions: clinical isolate, Table 7
[16] = test system: Enterococcus faecium (clinical isolate); assay: MIC, broth microdilution; type: cell-based; conditions: Gram positive clinical isolate
S. epidermidis B32954 = assay: MIC, broth microdilution; type: cell-based, Staphylococcus epidermidis; conditions: Gram positive clinical isolate
[17] = test system: Enterococcus faecalis B84939-vancomycin^r; assay: MIC, broth microdilution; type: cell-based; conditions: Gram positive clinical isolate
P. aeruginosa R17093 = assay: MIC, broth microdilution; type: cell-based, Pseudomonas aeruginosa; conditions: Gram negative clinical isolate; for MIC: read-out: Minimum Inhibitory Concentration
E. coli U23773^r = conditions: Gram negative clinical isolate
[18] = test system: Enterobacter cloacae W25161; conditions: Gram negative clinical isolate
A. baumannii R16998 = conditions: Gram negative clinical isolate
[19] = read-out: Minimum Inhibitory Concentration

In the case of `N=C(N)NCCC[C@H](NC(=O)[C@H](CCCNC(=N)N)NC(=O)[C@H](CCCNC(=N)N)NC(=O)[C@H](CCCNC(=N)N)NC(=O)[C@H](CCCNC(=N)N)NC(=O)[C@H](CCCNC(=N)N)NC(=O)[C@H](CCCNC(=N)N)NC(=O)[C@H](CCCNC(=N)N)NC(=O)[C@@H](N)CCCNC(=N)N)C(=O)O` [Compound 5, L-Arg-9-mer-NH2], the EC50 (HIV-1 IIIB) is reported as 33 µM, the CC50 (in vitro) is reported as 120 µM and the inhibition at 80 µM (CXCR4) is reported as 52.8%. The “Minimum Inhibitory Concentration” value [1] was 128.0 mg/L, the “Minimum Inhibitory Concentration” value (E. coli U3075921) was greater than 256.0 mg/L and the cellular uptake (cMAGI cells) was “lower uptake efficiency”. The “Minimum Inhibitory Concentration” value [2] was 128.0 mg/liter and 63.25 μM, the “Minimum Inhibitory Concentration” value (S. aureus MSSA) was 128.0 mg/liter and 63.25 μM and the “Minimum Inhibitory Concentration” value (S. aureus MRSA) was > 128.0 mg/liter and 63.25 μM. For the same compound, the “Minimum Inhibitory Concentration” value (S. epidermidis MSSE) was 12.0 mg/liter and 5.93 μM, the “Minimum Inhibitory Concentration” value (S. epidermidis MRSE) was 32.0 mg/liter and 15.81 μM and the “Minimum Inhibitory Concentration” value [3] was 128.0 mg/liter and 63.25 μM. The “Minimum Inhibitory Concentration” value [4] was > 256.0 mg/liter and 126.50 μM, the “Minimum Inhibitory Concentration” value [5] was > 256.0 mg/liter and 126.50 μM and the “Minimum Inhibitory Concentration” value [6] was > 256.0 mg/liter and 126.50 μM. For the same compound, the “Minimum Inhibitory Concentration” value [7] was > 256.0 mg/liter and 126.50 μM, the “Minimum Inhibitory Concentration” value [8] was > 256.0 mg/liter and 126.50 μM and the “Minimum Inhibitory Concentration” value [9] was 32.0 mg/liter and 15.81 μM. For the same compound, the “Minimum Inhibitory Concentration” value (E. Coli-ESBL negative) was > 256.0 mg/liter and 126.50 μM, the “Minimum Inhibitory Concentration” value (E. Coli-ESBL positive) was 256.0 mg/liter and 126.50 μM and the “Minimum Inhibitory Concentration” value [10] was > 256.0 mg/liter and 126.50 μM. The “Minimum Inhibitory Concentration” value [11] was > 256.0 mg/liter and 126.50 μM, the “Minimum Inhibitory Concentration” value (Serratia marcescens) was > 256.0 mg/liter and 126.50 μM and the “Minimum Inhibitory Concentration” value (Enterobacter cloacae) was > 256.0 mg/liter and 126.50 μM. The “Minimum Inhibitory Concentration” value (Enterobacter aerogenes) was > 256.0 mg/liter and 126.50 μM, the “Minimum Inhibitory Concentration” value [12] was > 256.0 mg/liter and 126.50 μM and the “Minimum Inhibitory Concentration” value [13] was > 256.0 mg/liter and 126.50 μM. For the same compound, the “Minimum Inhibitory Concentration” value [14] was > 256.0 mg/liter and 126.50 μM, the “Minimum Inhibitory Concentration” value [15] was > 256.0 mg/liter and 126.50 μM and the “Minimum Inhibitory Concentration” value (VRE faecium) was greater than 128.0 mg/L.
In the case of L-Arg-9-mer-neomycin [Compound 8], the EC50 (HIV-1 IIIB) is reported as 30 ± 7 µM, the “Minimum Inhibitory Concentration” value [16] is reported as 32.0 mg/L and the MIC [16, 19] is reported as 10.96 µM. The “Minimum Inhibitory Concentration” value (S. epidermidis B32954) was 0.5 mg/L, the MIC (S. epidermidis B32954; [19]) was 0.17 µM and the “Minimum Inhibitory Concentration” value [17] was 32.0 mg/L. The MIC [17, 19] was 10.96 µM, the “Minimum Inhibitory Concentration” value (P. aeruginosa R17093) was 128.0 mg/L and the MIC (P. aeruginosa R17093; listed as L-Neo-9-mer) was 43.83 µM. The MIC (P. aeruginosa R17093) was 43.83 µM, the “Minimum Inhibitory Concentration” value (S. aureus MSSA) was 4.0 mg/liter and 1.37 μM and the “Minimum Inhibitory Concentration” value (S. aureus MRSA) was 2.0 mg/liter and 0.68 μM. For the same compound, the “Minimum Inhibitory Concentration” value (S. epidermidis MSSE) was 0.5 mg/liter and 0.17 μM, the “Minimum Inhibitory Concentration” value (S. epidermidis MRSE) was 0.5 mg/liter and 0.17 μM and the “Minimum Inhibitory Concentration” value [3] was 256.0 mg/liter and 87.67 μM. For the same compound, the “Minimum Inhibitory Concentration” value (E. Coli-ESBL negative) was 4.0 mg/liter and 1.37 μM, the “Minimum Inhibitory Concentration” value (E. Coli-ESBL positive) was 8.0 mg/liter and 2.74 μM and the “Minimum Inhibitory Concentration” value [10] was 3.0 mg/liter and 1.03 μM. For the same compound, the “Minimum Inhibitory Concentration” value [11] was 1.5 mg/liter and 0.51 μM, the “Minimum Inhibitory Concentration” value (Serratia marcescens) was 4.0 mg/liter and 1.37 μM and the “Minimum Inhibitory Concentration” value (Enterobacter cloacae) was 8.0 mg/liter and 2.74 μM. The “Minimum Inhibitory Concentration” value (Enterobacter aerogenes) was 8.0 mg/liter and 2.74 μM, the “Minimum Inhibitory Concentration” value [12] was 48.0 mg/liter and 16.44 μM and the “Minimum Inhibitory Concentration” value [13] was 128.0 mg/liter and 43.83 μM. The “Minimum Inhibitory Concentration” value [14] was 6.0 mg/liter and 2.06 μM, the “Minimum Inhibitory Concentration” value [15] was 128.0 mg/liter and 43.83 μM and the “Minimum Inhibitory Concentration” value ([15]; listed as L-Neo-9-mer) was 57.92 µM. The “Minimum Inhibitory Concentration” value (E. coli U23773^r) was 96.0 mg/liter and 32.88 μM, the “Minimum Inhibitory Concentration” value (E. coli U23773^r; listed as L-Neo-9-mer) was 32.88 µM and the “Minimum Inhibitory Concentration” value [18] was 8.0 mg/liter and 2.74 μM. For the same compound, the “Minimum Inhibitory Concentration” value (A. baumannii R16998) was 128.0 mg/liter and 43.83 μM.
